Measurements taken from PubChem BioAssay (NCI).
Several values for one entry are separate records, joined by “and”; a condition that tells them apart may be missing. Equal values may be shown once.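 Cultured in 96-well plates, cells were exposed to test compound for 48 hours across five concentrations. GI50 marks 50% less growth. TGI marks complete inhibition of growth.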

Assays:
Assay in all cases: NCI-60 cell line screen, 48 h
NCI-H23 lung = test system: NCI-H23 lung
PC-3 prostate = test system: PC-3 prostate
SK-MEL-28 melanoma = test system: SK-MEL-28 melanoma
K-562 leukemia = test system: K-562 leukemia
M14 melanoma = test system: M14 melanoma
MDA-MB-231 breast = test system: MDA-MB-231 breast
OVCAR-4 ovarian = test system: OVCAR-4 ovarian
HOP-62 NSCLC = test system: HOP-62 NSCLC
ACHN renal = test system: ACHN renal
HS 578T breast = test system: HS 578T breast

SMILES	GI50 (NCI-H23 lung)	TGI (NCI-H23 lung)	GI50 (PC-3 prostate)	TGI (PC-3 prostate)	GI50 (SK-MEL-28 melanoma) [µM]	TGI (SK-MEL-28 melanoma)	GI50 (K-562 leukemia) [µM]	TGI (K-562 leukemia)	GI50 (M14 melanoma) [µM]	TGI (M14 melanoma)	GI50 (MDA-MB-231 breast)	TGI (MDA-MB-231 breast) [µM]	GI50 (OVCAR-4 ovarian) [µM]	TGI (OVCAR-4 ovarian)	GI50 (HOP-62 NSCLC) [µM]	TGI (HOP-62 NSCLC)	GI50 (ACHN renal)	TGI (ACHN renal)	GI50 (HS 578T breast)	TGI (HS 578T breast)
Clc1nc(Cl)c2ncn(CCOCCn3cnc4c(Cl)nc(Cl)nc43)c2n1	0.204 µM	0.401 µM	0.188 µM	0.365 µM	0.199	0.362 µM	0.361	> 100 µM	0.287	0.817 µM	0.187 µM	0.355	0.283	0.707 µM	0.202	0.36 µM	0.328 µM	0.811 µM	0.289 µM	0.693 µM
O=c1[nH]c2ccccc2n1C1CCN(CCCC(c2ccc(F)cc2)c2ccc(F)cc2)CC1	1.51 µM and 9.1 µM	3.18 µM and 24.3 µM	1.41 µM and 7.81 µM	3.2 µM and 21.3 µM	1.61	2.99 µM and 5.86 µM	1.88	4.54 µM and 17.4 µM	1.83	3.72 µM and 8.19 µM	1.33 µM and 7.38 µM		1.23	2.47 µM and 22 µM	1.53	2.89 µM and 22.3 µM	1.66 µM and 10.9 µM	3.16 µM and 24.7 µM	1.83 µM and 7.71 µM	4.47 µM and 24.8 µM
CC1=NNC(=S)NCCCN2CCN(CCCNC(=S)NN=C(C)C=NNC(=S)NCCCN3CCN(CCCNC(=S)NN=C1)CC3)CC2		> 100 µM		> 100 µM		> 100 µM		> 100 µM		> 100 µM		> 100		> 100 µM		> 100 µM		> 100 µM		> 100 µM
O=C1/C(=C/c2ccccc2O)N=C(c2ccccc2)N1c1cc(C(F)(F)F)ccc1Cl	80.1 µM	> 100 µM	42.7 µM	> 100 µM	> 100	> 100 µM	> 100	> 100 µM	62.5	> 100 µM	20.7 µM	71.2	> 100	> 100 µM	15.9	30.4 µM	18.6 µM	51.4 µM	22.8 µM	60.3 µM
C#CCNC(=O)NC(CCCCNC(=O)OCc1ccccc1)C(=O)OCc1ccccc1 (centres undefined)		> 100 µM		> 100 µM		38.5 µM		> 100 µM		58.4 µM		> 58.7		> 100 µM		> 100 µM		> 100 µM		> 100 µM
COc1ccc(COc2cc3oc(=O)c4cc(C(C)O)ccc4c3cc2OC)cc1 (centres undefined)	16.6 µM	> 86.6 µM	14.7 µM	> 100 µM	14.3	> 91.7 µM	73.4	> 100 µM	> 22.5	> 100 µM	9.6 µM	97.5	10.1	66.2 µM	8.15	29.4 µM	23.1 µM	> 100 µM	8.79 µM	> 67.4 µM
COc1ccc2c(c1)C(=O)c1c-2c(=O)n(CCCN(C)C)c2cc(OC)c(OC)cc12	6.48 µM	24.5 µM	11.4 µM	26.5 µM	17.9	32 µM	4.75	24 µM	6.65	21.7 µM	14.4 µM	28.5	12.6	25.3 µM	0.682	> 100 µM	2.76 µM	14.4 µM	16.2 µM	36.7 µM
O=S(=O)(NCCCNc1cc(-c2cn(-c3ccccc3)nc2-c2cccc(O)c2)ccn1)c1ccc(F)cc1	3.48 µM	19 µM	3.11 µM	8.5 µM	2.58	8.27 µM	2.4	6.38 µM	2.85	8.75 µM	2.48 µM	7.19	3.82	48.9 µM	4.98	19.3 µM	3.52 µM	33.8 µM	2.71 µM	9.22 µM
O=C1C(Sc2ccc3ccccc3c2)=C(Sc2ccc3ccccc3c2)C(=O)c2ccccc21		22.1 µM		31.8 µM		28.5 µM		19 µM		23.7 µM		18.3		15.2 µM		27.8 µM		17.3 µM		62.3 µM
COc1c(CC=C(C)C)c(O)c(C(CC(C)C)c2c(O)c(CC=C(C)C)c(O)c(C(C)=O)c2O)c(O)c1C(C)=O (centres undefined)		0.877 µM		10.3 µM		5.21 µM		5.71 µM		5.72 µM		7.66		14.4 µM		3.96 µM		10.9 µM		4.63 µM
COc1ccc(S(=O)(=O)N2CCNCC2)cc1OC	> 100 µM	> 100 µM	> 100 µM	> 100 µM	> 100	> 100 µM	> 100	> 100 µM	> 100	> 100 µM	> 100 µM	> 100	> 100	> 100 µM	> 100	> 100 µM	> 100 µM	> 100 µM	> 100 µM	> 100 µM
CCn1ccnc1C(=O)/C=C/c1ccc(CC(=O)Nc2ccc(F)cc2)cc1	4.25 µM	> 16.7 µM	7.06 µM	> 16.7 µM	4.92	> 16.7 µM	2.06	> 16.7 µM	3.02	8.06 µM	4.36 µM	> 16.7	3.31	> 16.7 µM	3.92	9.93 µM	3.95 µM	11.7 µM	5.36 µM	> 16.7 µM
N#Cc1cccc(Nc2ncc(-c3ccccc3)o2)c1	> 22.8 µM	> 25 µM	15.1 µM	> 25 µM	> 20.4	> 25 µM	> 25	> 25 µM	> 25	> 25 µM	8.38 µM	> 25	10.9	> 25 µM	6.69	> 17.8 µM	8.4 µM	> 25 µM	8.52 µM	> 25 µM
